The test system of data set [1] is HepG2 liver cancer cell line. The experiment in a line: Resazurin Cell Growth Inhibition Assay, HepG2. Type of data set: cell-based, human. Conditions: HepG2, 48 h, mean ± SD of three experiments, read-out: Cytotoxic Activity IC50. Here is the method:
(§1) Compounds 1–4 were assessed for their in vitro cytotoxic activity against three human cell lines i.e., breast (MCF-7), liver (HepG2), colon (HCT-116) cancer cell lines as well as in lung fibroblast (WI38) normal cell line using the Resazurin Cell Growth Inhibition Assay. Both erlotinib and 5-Fluorouracil (5-FU) were used as reference drugs. Concentrations of the tested compounds that give about 50% inhibition of cell viability (IC50, mean of triplicate) in µM were obtained. […] However, if replaced by a hydrazone substituent, a more prominent efficacy toward the three cancer cell lines was observed. […] The most promising in vitro antiproliferative activity was obtained when the hydrazone is bearing electron-withdrawal groups i.e., 4-chlorobenzylidene moiety (compound 3f), 3,4-dichloro benzylidene moiety (compound 3g) and 4-fluorobenzylidene moiety (compound 3h) compared to the standard treatment (Table 1, Figure 5). The inhibitory activity of compounds was reduced when the hydrazone group is bearing electron donating groups i.e., 4-methyl group (compound 3b), 2-methoxy group (compound 3c), 4-hydroxy (compound 3d) and 4-dimethylamino group (compound 3e). The trend of antiproliferative activity of compounds […] against all tested cell lines has the following descending order: (3g > 3h >3f >3a >3b > 3c > 3d > 3e). […]. […] This is mainly because this compound has the highest lipophilicity as well as less electron density as it has 2-Cl atoms (more electronegativity) on the indolyl pyrimidine-thiazolidinone.
(§2) In vitro cytotoxicity was measured according to the Resazurin Cell Growth Inhibition Assay Alamar Blue or Resazurin (Promega, Mannheim, Germany) reduction assay was used to assess the cytotoxicity of the studied samples. The assay tests cellular viability and mitochondrial function. Briefly, adherent cells were grown in tissue culture flasks, and then harvested by treating the flasks with 0.025% trypsin and 0.25 mM EDTA for 5 min. Once detached, cells were washed, counted, and an aliquot (5 × 10^3 cells) were placed in each well of a 96-well cell culture plate in a total volume of […]. Cells were allowed to attach overnight and then treated with samples. […]. Each assay was performed as triplicates. […] […]. The viability was compared based on a comparison with untreated cells. IC50 (on cancer cells) were the concentration of sample required to inhibit 50% of the cell proliferation and were calculated from a calibration curve by a linear regression using Microsoft Excel.
A general note: The colour change of resazurin is a common sign of viable cells or microbes.

Data set [2] can be described thus: Resazurin Cell Growth Inhibition Assay, WI38 normal cells. Type of data set: cell-based. The following applies: human, WI38 normal lung fibroblast cells, WI-38 normal cells, mean ± SD of three experiments, read-out: Cytotoxic Activity IC50. As for the experimental part: as §1, §2
For data set [3], the system named is MCF-7, HepG2 and HCT-116 cancer cell lines. As to the kind of experiment: Resazurin assay, range over the three cancer cell lines. The data set is classed as cell-based. The following applies: Homo sapiens; range over MCF-7, HepG2 and HCT-116; read-out: IC50 range against the cancer cell lines. As for the experimental part: Compounds 1–4 were assessed for their in vitro cytotoxic activity against three human cell lines i.e., breast (MCF-7), liver (HepG2), colon (HCT-116) cancer cell lines as well as in lung fibroblast (WI38) normal cell line using the Resazurin Cell Growth Inhibition Assay. Both erlotinib and 5-Fluorouracil (5-FU) were used as reference drugs. Concentrations of the tested compounds that give about 50% inhibition of cell viability (IC50, mean of triplicate) in µM were obtained. […] However, if replaced by a hydrazone substituent, a more prominent efficacy toward the three cancer cell lines was observed. […] The most promising in vitro antiproliferative activity was obtained when the hydrazone is bearing electron-withdrawal groups i.e., 4-chlorobenzylidene moiety (compound 3f), 3,4-dichloro benzylidene moiety (compound 3g) and 4-fluorobenzylidene moiety (compound 3h) compared to the standard treatment (Table 1, Figure 5). […]
In vitro cytotoxicity was measured according to the Resazurin Cell Growth Inhibition Assay Alamar Blue or Resazurin (Promega, Mannheim, Germany) reduction assay was used to assess the cytotoxicity of the studied samples. […] Once detached, cells were washed, counted, and an aliquot (5 × 10^3 cells) were placed in each well of a 96-well cell culture plate in a total volume of 100 mL. […]

In data set [4] the test system is MCF-7 breast cancer cell line. The experiment in a line: Resazurin Cell Growth Inhibition Assay, MCF-7. The data set is classed as cell-based. Conditions: Homo sapiens, MCF7; MCF-7, 48 h, mean ± SD of three experiments; read-out: Cytotoxic Activity IC50. As for the experimental part:
as §1, §2

The subject of data set [5] is HCT-116 colon cancer cell line. The experiment in a line: Resazurin Cell Growth Inhibition Assay, HCT-116. Type of data set: cell-based, human. The following applies: HCT-116, 48 h, mean ± SD of three experiments, read-out: Cytotoxic Activity IC50. As for the experimental part: as §1, §2
The target of another data set is EGFR kinase (Homo sapiens, UniProt P00533). The experiment in a line: In vitro EGFR inhibitory assay (EnzyChrom Kinase Assay Kit EKIN-400). The following applies: for inhibition at 10 µM: read-out: % Inhibition of EGFR.
In data set [6] the test system is Ehrlich ascites carcinoma (EAC). The experiment in a line: In vivo antitumor assay in EAC tumor bearing mice. Conditions: 0.5 mg/mouse for nine days; for Tumor Volume: ascitic fluid; for MST (mean survival time): mean of two experiments; for Viable Tumor Cell Count: trypan blue. As for the experimental part:
The antitumor activity of these compounds was assessed by the change in tumor volume, viable cell count, mean survival time (MST) and % increase in lifespan (% ILS) of the EAC tumor bearing mice and 5-FU (standard treatment). The mean survival time (MST) and % increase in lifespan (% ILS) of EAC tumor bearing mice, as well as the influence of these compounds on viable tumor cells and the tumor volume, are shown in Table 2. The hematological profile of these mice was also assessed in comparison with the standard treatment with 5-FU, and no obvious effect on RBCs or WBCs was observed. […] MST = (day of first death + day of last death)/2 %ILS = [(MST of treated group/MST of control group) − 1] × 100 […]
In vivo antitumor evaluation was carried out as previously reported (see Supplementary Materials).
2. Biological Evaluation Details: a) In vivo antitumor assay: Materials . Adult Swiss male mice (weighing 20 -25 g) were obtained from the Department of Pharmacology, Faculty of Pharmacy, Mansoura University, Egypt.
They were kept in microlon boxes at temperature 25 ± 2 °C with a regular 12 hrs light/dark cycle. In addition, food and water were available. EAC cells (procured from NCI, Cairo, Egypt) were harvested and prepared, then their total number was counted.
Procedure. 7 Groups of mice ( n = 4) were used.
Group 1: Negative control (no EAC cells) - received normal saline.
Group 2: Positive control (EAC cells) - received normal saline.
Group 3: EAC cells - treated with compound 3g (0.5 mg/mouse).
Group 4: EAC cells - treated with compound 4f (0.5 mg/mouse).
Group 5: EAC cells - treated with compound 4g (0.5 mg/mouse).
Group 6: EAC cells - treated with compound 4h (0.5 mg/mouse).
Group 7: EAC cells - treated with 5-fluorouracil (0.5 mg/mouse).
2 x 10^6 EAC cells were injected intraperitoneally in each mouse (groups 2-7). After […]
for nine days, then blood samples were withdrawn for assessment of blood count.
Determination of tumor volume
The ascetic fluid was gathered from the peritoneal cavity and its volume was determined. It was then centrifuged, and the packed tumor cell volume was measured.
Determination of viable tumor cell count
100 μL Sample of EAC cells (from three mice per group) was utilized and diluted twenty times with saline. Cells were stained with trypan blue, viable cells are not stained, while the dead ones are stained. The number of viable cells was calculated.

In general, IC50 refers to the concentration that gives 50% inhibition. By melting point is commonly meant the temperature, or range, at which the solid turns liquid. What is called inhibition is the drop in the measured response relative to a control, in per cent.

Read-outs that look alike come from different tables or passages of the source.

Sequence of EGFR kinase (P00533 25-1210): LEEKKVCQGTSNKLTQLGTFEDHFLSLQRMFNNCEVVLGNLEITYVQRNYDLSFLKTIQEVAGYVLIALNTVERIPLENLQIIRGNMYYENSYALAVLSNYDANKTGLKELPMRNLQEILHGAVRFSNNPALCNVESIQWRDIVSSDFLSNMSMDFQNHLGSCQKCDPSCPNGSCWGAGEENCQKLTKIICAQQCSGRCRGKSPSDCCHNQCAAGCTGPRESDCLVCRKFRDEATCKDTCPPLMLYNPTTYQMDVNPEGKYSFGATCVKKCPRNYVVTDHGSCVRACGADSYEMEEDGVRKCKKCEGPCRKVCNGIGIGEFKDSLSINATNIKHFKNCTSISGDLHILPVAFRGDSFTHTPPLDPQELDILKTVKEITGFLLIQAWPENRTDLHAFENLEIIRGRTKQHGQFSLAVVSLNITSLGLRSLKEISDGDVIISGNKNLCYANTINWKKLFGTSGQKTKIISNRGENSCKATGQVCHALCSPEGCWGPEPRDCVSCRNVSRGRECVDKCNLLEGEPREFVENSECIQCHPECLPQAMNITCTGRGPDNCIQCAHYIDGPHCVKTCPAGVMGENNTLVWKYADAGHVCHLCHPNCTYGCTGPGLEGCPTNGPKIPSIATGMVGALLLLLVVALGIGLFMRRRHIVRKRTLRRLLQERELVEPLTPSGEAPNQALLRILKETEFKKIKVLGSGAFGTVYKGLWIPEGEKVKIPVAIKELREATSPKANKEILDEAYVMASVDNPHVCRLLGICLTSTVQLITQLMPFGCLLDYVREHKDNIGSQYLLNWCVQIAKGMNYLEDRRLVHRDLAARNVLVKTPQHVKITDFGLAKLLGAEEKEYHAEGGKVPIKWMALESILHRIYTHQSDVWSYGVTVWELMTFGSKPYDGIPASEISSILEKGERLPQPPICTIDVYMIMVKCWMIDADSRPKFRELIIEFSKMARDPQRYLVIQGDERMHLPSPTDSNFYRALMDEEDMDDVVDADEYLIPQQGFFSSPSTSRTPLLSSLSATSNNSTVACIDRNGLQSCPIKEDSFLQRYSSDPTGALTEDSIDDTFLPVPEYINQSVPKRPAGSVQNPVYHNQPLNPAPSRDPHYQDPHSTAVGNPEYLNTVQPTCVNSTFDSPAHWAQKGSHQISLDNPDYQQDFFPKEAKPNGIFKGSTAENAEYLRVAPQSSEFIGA
Method for EGFR kinase: A first-generation EGFR inhibitor, erlotinib, was used as standard treatment. […] IC50 for these compounds was determined. […] In addition, 20 µL reaction mixture containing the EGFR kinase, ATP, and substrate in the provided assay buffer. Set up a blank control that contains ATP and substrate but no enzyme. Incubate at desired temperature for 30 min. Prepare 900 µL 10µM (adenosine diphosphate) ADP premix by mixing 3 µL of 3 mM standard and 897 µL distilled water. Transfer 20 µL standards into separate wells of the plate. Prepare enough working reagent for each well. Add 40 µL working reagent to each assay well. Tap plate to mix. Incubate at room temperature for 10 min. Read fluorescence intensity at λexc = 530nm and λem = 590 nm, and then calculate kinase activity.

`CCOC(=O)C1=C(C)NC(=S)NC1c1c[nH]c2ccccc12` (stereo not shown) [Compound 1, Ethyl 4-(1H-indol-3-yl)-6-methyl-2-thioxo-1,2,3,4-tetrahydropyrimidine-5-Carboxylate] gave a melting point of 245 to 247 °C. The IC50 in data set [1] (Homo sapiens) worked out at 28.8 ± 2.25 µM. Also, the IC50 at 48 h in data set [2] worked out at 30 ± 1.2 µM. In data set [3], the half-inhibitory concentration (IC50) is 26.8 to 28.2 µM. Moreover, the IC50 in data set [4] is 26.8 ± 2.2 µM. The IC50 in data set [5] (Homo sapiens) is 27.2 ± 1.11 µM.

In turn, `CC1=C(C(=O)NN)C(c2c[nH]c3ccccc23)NC(=S)N1` (stereo not shown) [Compound 2, 4-(1H-indol-3-yl)-6-methyl-2-thioxo-1,2,3,4-tetrahydropyrimidine-5-carbohydrazide] came in with a melting point of 208 to 210 °C. For the same compound, in data set [1] (Homo sapiens), the IC50 was determined as 25.5 ± 2.17 µM. Moreover, the IC50 at 48 h in data set [2] turned out to be 40.5 ± 2.25 µM. In data set [3], the IC50 is 21.6 to 25.5 µM. Besides, the IC50 in data set [4] came to 21.6 ± 1.8 µM. Moreover, in data set [5] (Homo sapiens), the IC50 worked out at 22.2 ± 1.5 µM.

Consider `CC1=C(C(=O)NN=Cc2ccc(Cl)c(Cl)c2)C(c2c[nH]c3ccccc23)NC(=S)N1` (stereo not shown) [Compound 3g, 4-(1H-indol-3-yl)-6-methyl-2-thioxo-1,2,3,4-tetrahydropyrimidine-5-carboxylic acid (3,4-dichloro-benzylidene)-hydrazide], for which the half-inhibitory concentration (IC50) in data set [1] (Homo sapiens) was found to be 10 ± 2.46 µM. On EGFR kinase, the IC50 is 500 ± 40 nM and the inhibition at 10 µM is 53%. The IC50 at 48 h in data set [2] came to 30 ± 3.72 µM. In addition, in data set [6], the “Tumor Volume” value was 2.97 mL, the “MST (mean survival time)” value stood at 30 days and the “Viable Tumor Cell Count” value is on record as 48.00 10^6/mL. The IC50 in data set [4] was 9 ± 2.4 µM. Further, the IC50 in data set [5] (Homo sapiens) turned out to be 8.5 ± 2.3 µM.

Consider `CC1=C(C(=O)NN2C(=O)CSC2c2ccc(Cl)cc2)C(c2c[nH]c3ccccc23)NC(=S)N1` (stereo not shown) [Compound 4f, N-(2-(4-chlorophenyl)-4-oxothiazolidin-3-yl)-4-(1H-indol-3-yl)-6-methyl-2-thioxo-1,2,3,4-tetrahydropyrimidine-5-carboxamide], for which the IC50 in data set [1] (Homo sapiens) came to 8.9 ± 1.73 µM. Moreover, at EGFR kinase, the IC50 came to 380 ± 20 nM and the inhibition at 10 µM was 71%. Moreover, the IC50 at 48 h in data set [2] was 19.3 ± 5.87 µM. In data set [6], the “Tumor Volume” value stood at 2.50 mL, the “MST (mean survival time)” value came to 37 days and the “Viable Tumor Cell Count” value is listed as 40.70 10^6/mL. The IC50 in data set [4] worked out at 8.01 ± 1.83 µM. Further, the IC50 in data set [5] (Homo sapiens) worked out at 8.02 ± 0.26 µM.

Take `CC1=C(C(=O)NN2C(=O)CSC2c2ccc(Cl)c(Cl)c2)C(c2c[nH]c3ccccc23)NC(=S)N1` (stereo not shown) [Compound 4g, N-(2-(3,4-dichlorophenyl)-4-oxothiazolidin-3-yl)-4-(1H-indol-3-yl)-6-methyl-2-thioxo-1,2,3,4-tetrahydropyrimidine-5-carboxamide]: the IC50 was 6.6 ± 1.4 µM in data set [1]; 5.02 µM in data set [1] (Homo sapiens); 5.1 ± 1.14 µM in data set [4]; 5.02 ± 1.19 µM in data set [5]; 6.6 µM in data set [5] (Homo sapiens). In addition, at EGFR kinase, the inhibition at 10 µM was determined as 79%. Also, in data set [2], the IC50 at 48 h came to 16.3 ± 3.21 µM. Moreover, the “Tumor Volume” value in data set [6] was determined as 0.89 mL. Further, the “MST (mean survival time)” value in data set [6] was found to be 46 days. For the same compound, the “Viable Tumor Cell Count” value in data set [6] was 21.70 10^6/mL.

As to `CC1=C(C(=O)NN2C(=O)CSC2c2ccc(F)cc2)C(c2c[nH]c3ccccc23)NC(=S)N1` (stereo not shown) [Compound 4h, N-(2-(4-fluorophenyl)-4-oxothiazolidin-3-yl)-4-(1H-indol-3-yl)-6-methyl-2-thioxo-1,2,3,4-tetrahydropyrimidine-5-carboxamide], in data set [1] (Homo sapiens), the IC50 was 7.5 ± 1.29 µM. For the same compound, on EGFR kinase, the IC50 amounted to 390 ± 20 nM and the inhibition at 10 µM turned out to be 70%. The IC50 at 48 h in data set [2] was determined as 18.1 ± 2.06 µM. In data set [6], the “Tumor Volume” value stood at 1.18 mL, the “MST (mean survival time)” value turned out to be 40 days and the “Viable Tumor Cell Count” value is 28.50 10^6/mL. For the same compound, in data set [4], the IC50 amounted to 6.6 ± 1.28 µM. In addition, in data set [5] (Homo sapiens), the IC50 turned out to be 7.02 ± 0.46 µM.
